Data on six molecules can be found in ChEMBL document CHEMBL1124638, “2,4-Diamino-5-benzylpyrimidines and analogues as antibacterial agents. 10. 2,4-Diamino-5-(6-quinolylmethyl)- and -[(tetrahydro-6-quinolyl)methyl]pyrimidine derivatives. Further specificity studies” (J Med Chem, 1989).

In brackets after ≈: the same amount, converted by molar mass.

One data set concerns Salmonella typhimurium. Put plainly: Comparative in vitro antibacterial activity with trimethoprim against Salmonella Typhimurium S 8587. The format is functional, Salmonella enterica subsp. enterica serovar Typhimurium. As to conditions: Salmonella enterica.
A short description of data set [1]: Comparative in vitro antibacterial activity with trimethoprim against Salmonella typhi CN512. The format is functional, salmonella typhosa.
Data set [2] concerns Citrobacter freundii. Put plainly: Comparative in vitro antibacterial activity with trimethoprim against Citrobacter freundii 2200/77. The class given is functional.
In a further data set the test system is Streptococcus pyogenes. Put plainly: Comparative in vitro antibacterial activity of compound with trimethoprim against Streptococcus pyogenes CN10. The class given is functional.
A further data set deals with Vibrio cholerae. The experiment in a line: Comparative in vitro antibacterial activity with trimethoprim against Vibrio cholerae ATCC 14035. The class given is functional.
The next data set has as its system Streptococcus agalactiae. Put plainly: Comparative in vitro antibacterial activity with trimethoprim against Streptococcus agalactiae CN1143. The format is functional.
Data set [3] addresses Dihydrofolate reductase (Neisseria gonorrhoeae, UniProt P04174). The experiment in a line: Inhibitory activity against Dihydrofolate reductase in Neisseria gonorrhoeae. The conditions noted are these: read-out: I50.
Another data set relates to Staphylococcus aureus. The experiment in a line: Comparative in vitro antibacterial activity with trimethoprim against Staphylococcus aureus CN491. The class given is functional.
In data set [4] the test system is Bordetella bronchiseptica. The experiment in a line: Comparative in vitro antibacterial activity with trimethoprim against Bordetella bronchiseptica CN385. The format is functional.
The target in data set [5] is T1, Dihydrofolate reductase (Rattus norvegicus, UniProt Q920D2).
T1 sequence (Q920D2 whole entry): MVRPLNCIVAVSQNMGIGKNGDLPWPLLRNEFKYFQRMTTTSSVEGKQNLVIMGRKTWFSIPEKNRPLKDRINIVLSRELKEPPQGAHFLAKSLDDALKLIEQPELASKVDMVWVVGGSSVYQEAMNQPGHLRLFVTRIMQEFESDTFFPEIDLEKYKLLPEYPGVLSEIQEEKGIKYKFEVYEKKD
Put plainly: Inhibitory activity against dihydrofolate reductase in rat liver. As to conditions: read-out: I50.

In another data set the test system is Proteus mirabilis. Put plainly: Comparative in vitro antibacterial activity with trimethoprim against Proteus mirabilis S2409. The format is functional.
Data set [6] deals with Mycolicibacterium smegmatis. The experiment in a line: Comparative in vitro antibacterial activity with trimethoprim against Mycobacterium smegmatis S 3254. The class given is functional.
The subject of a further data set is Pasteurella multocida. The experiment in a line: Comparative in vitro antibacterial activity with trimethoprim against Pasteurella multocida ATCC 6587. The class given is functional.
The subject of a further data set is Proteus vulgaris. Put plainly: Comparative in vitro antibacterial activity with trimethoprim against Proteus vulgaris CN329. The format is functional.
The next data set relates to Serratia marcescens. The experiment in a line: Comparative in vitro antibacterial activity with trimethoprim against Serratia marcescens CN2398. The class given is functional.
In a further data set the test system is Enterococcus faecalis. Put plainly: Comparative in vitro antibacterial activity with trimethoprim against Streptococcus faecalis CN478. The format is functional.
In another data set the test system is Escherichia coli. Put plainly: Comparative in vitro antibacterial activity with trimethoprim against Escherichia coli CN314. The class given is functional.
The subject of data set [7] is Klebsiella pneumoniae. The experiment in a line: Comparative in vitro antibacterial activity with trimethoprim against Klebsiella pneumoniae CN3632. The format is functional.
The next data set relates to Klebsiella aerogenes. The experiment in a line: Comparative in vitro antibacterial activity with trimethoprim against Enterobacter aerogenes 2200/86. The format is functional.
Another data set concerns Shigella flexneri. The experiment in a line: Comparative in vitro antibacterial activity with trimethoprim against Shigella flexneri CN6007. The class given is functional.
A short description of data set [8]: Dissociation constant at 20 degree C. The class given is physicochemical.
For data set [9], the system named is Citrobacter freundii. The experiment in a line: Comparative in vitro antibacterial activity of compound with trimethoprim against Citrobacter freundii 2200/77. The format is functional.
Data set [10] concerns Klebsiella pneumoniae. Put plainly: Comparative in vitro antibacterial activity of compound with trimethoprim against Klebsiella pneumoniae CN3632. The format is functional.

Sequence of Dihydrofolate reductase (Neisseria gonorrhoeae, UniProt P04174) (P04174 whole entry): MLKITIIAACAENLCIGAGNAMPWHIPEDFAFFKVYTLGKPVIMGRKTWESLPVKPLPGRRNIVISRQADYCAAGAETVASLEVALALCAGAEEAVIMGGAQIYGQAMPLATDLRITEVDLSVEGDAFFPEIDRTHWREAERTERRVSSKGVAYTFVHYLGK

Broadly, the MIC is the lowest concentration that inhibits growth of the organism. A high value points to a less susceptible organism. For `CCN1CC(CO)Cc2cc(Cc3cnc(N)nc3N)cc(OC)c21` (stereo unspecified), the MIC against Salmonella typhimurium is 30 µg/mL (≈ 87.4 µM); in [1], 100 µg/mL (≈ 291 µM); with Citrobacter freundii [2], 100 µg/mL (≈ 291 µM); in the data set on Streptococcus pyogenes it was 10 µg/mL (≈ 29.1 µM); with Vibrio cholerae, 100 µg/mL (≈ 291 µM); in the data set on Streptococcus agalactiae it was 30 µg/mL (≈ 87.4 µM). Further, the MIC in the data set with Staphylococcus aureus is 10 µg/mL (≈ 29.1 µM); in data set [4] it was 30 µg/mL (≈ 87.4 µM); in the data set on Proteus mirabilis, greater than 30 µg/mL; in [6], 100 µg/mL (≈ 291 µM); with Pasteurella multocida, 100 µg/mL (≈ 291 µM); with Proteus vulgaris, greater than 100 µg/mL. The MIC against Serratia marcescens is greater than 10 µg/mL; with Enterococcus faecalis, 3 µg/mL (≈ 8.74 µM); in the data set on Escherichia coli it was 100 µg/mL (≈ 291 µM); against Klebsiella pneumoniae [7], 30 µg/mL (≈ 87.4 µM); against Klebsiella aerogenes, 10 µg/mL (≈ 29.1 µM); with Shigella flexneri, 100 µg/mL (≈ 291 µM). In addition, the results for the IC50 on Dihydrofolate reductase [3] and on Dihydrofolate reductase [5] were 2.6 µM and 440 µM, respectively.

Consider `COc1cc(Cc2cnc(N)nc2N)cc2c1N(CCO)CCC2C` (stereo unspecified), for which the MIC against Salmonella typhimurium turned out to be 10 µg/mL (≈ 29.1 µM); in [1], 30 µg/mL (≈ 87.4 µM); with Citrobacter freundii [2], 3 µg/mL (≈ 8.74 µM); with Streptococcus pyogenes, 3 µg/mL (≈ 8.74 µM); in the data set with Vibrio cholerae, 3 µg/mL (≈ 8.74 µM); against Streptococcus agalactiae it was 1 µg/mL (≈ 2.91 µM). The MIC against Staphylococcus aureus turned out to be 1 µg/mL (≈ 2.91 µM); in data set [4], 10 µg/mL (≈ 29.1 µM); against Proteus mirabilis it was 10 µg/mL (≈ 29.1 µM); in data set [6], 3 µg/mL (≈ 8.74 µM); in the data set on Pasteurella multocida, 10 µg/mL (≈ 29.1 µM); in the data set with Proteus vulgaris it was 10 µg/mL (≈ 29.1 µM). Also, the MIC in the data set with Serratia marcescens was 10 µg/mL (≈ 29.1 µM); in the data set on Enterococcus faecalis, 0.3 µg/mL (≈ 0.874 µM); against Escherichia coli it was 30 µg/mL (≈ 87.4 µM); against Klebsiella pneumoniae [7], 10 µg/mL (≈ 29.1 µM); against Klebsiella aerogenes it was 30 µg/mL (≈ 87.4 µM); with Shigella flexneri, 10 µg/mL (≈ 29.1 µM). For the same molecule, the results for the IC50 at Dihydrofolate reductase [3] and on Dihydrofolate reductase [5] were 0.61 µM and 142 µM, respectively.

In general, pKa refers to the negative logarithm of the acid dissociation constant. A higher pKa goes with a weaker acid or stronger base. Molecule `COc1cccc2c1N(C)CCC2C` (stereo unspecified) gave a pKa in [8] of 6.51.

Turning to `CC1CCNc2ccc(Cc3cnc(N)nc3N)cc21` (stereo unspecified), the MIC stood at 10 µg/mL (≈ 37.1 µM) with Salmonella typhimurium; 10 µg/mL (≈ 37.1 µM) in [1]; 30 µg/mL (≈ 111 µM) in the data set on Citrobacter freundii [2]; 1 µg/mL (≈ 3.71 µM) in the data set on Streptococcus pyogenes; 3 µg/mL (≈ 11.1 µM) with Vibrio cholerae; 3 µg/mL (≈ 11.1 µM) in the data set on Streptococcus agalactiae. Also, the MIC against Staphylococcus aureus worked out at 3 µg/mL (≈ 11.1 µM); in data set [4], 10 µg/mL (≈ 37.1 µM); in the data set on Proteus mirabilis, 10 µg/mL (≈ 37.1 µM); in [6], 3 µg/mL (≈ 11.1 µM); against Pasteurella multocida it was 3 µg/mL (≈ 11.1 µM); against Proteus vulgaris, 10 µg/mL (≈ 37.1 µM). The MIC against Serratia marcescens came to 10 µg/mL (≈ 37.1 µM); against Enterococcus faecalis it was 3 µg/mL (≈ 11.1 µM); with Escherichia coli, 30 µg/mL (≈ 111 µM); against Klebsiella pneumoniae [7] it was 30 µg/mL (≈ 111 µM); in the data set with Klebsiella aerogenes it was 10 µg/mL (≈ 37.1 µM); against Shigella flexneri, 30 µg/mL (≈ 111 µM). Further, the IC50 was determined as 0.4 µM at Dihydrofolate reductase [3] and 22 µM at Dihydrofolate reductase [5].

For the molecule `CC1CC(C)c2cc(Cc3cnc(N)nc3N)cc(Cl)c2N1` (stereo unspecified), the MIC in the data set with Salmonella typhimurium was found to be 100 µg/mL (≈ 315 µM); in data set [1], 100 µg/mL (≈ 315 µM); against Citrobacter freundii [2] it was 100 µg/mL (≈ 315 µM); against Streptococcus pyogenes, 3 µg/mL (≈ 9.44 µM); against Vibrio cholerae, 3 µg/mL (≈ 9.44 µM); with Streptococcus agalactiae, 3 µg/mL (≈ 9.44 µM). For the same molecule, the MIC in the data set with Staphylococcus aureus turned out to be 3 µg/mL (≈ 9.44 µM); in [4], 100 µg/mL (≈ 315 µM); against Proteus mirabilis, 30 µg/mL (≈ 94.4 µM); in data set [6], 10 µg/mL (≈ 31.5 µM); against Pasteurella multocida, 30 µg/mL (≈ 94.4 µM); in the data set with Proteus vulgaris, 100 µg/mL (≈ 315 µM). The MIC is greater than 10 µg/mL in the data set on Serratia marcescens; 3 µg/mL (≈ 9.44 µM) in the data set with Enterococcus faecalis; 100 µg/mL (≈ 315 µM) with Escherichia coli; 100 µg/mL (≈ 315 µM) in the data set with Klebsiella pneumoniae [7]; 100 µg/mL (≈ 315 µM) in the data set with Klebsiella aerogenes; 300 µg/mL (≈ 944 µM) in the data set on Shigella flexneri. Also, the IC50 was found to be 0.24 µM on Dihydrofolate reductase [3] and 41 µM on Dihydrofolate reductase [5].

On to `COCCOc1cc(Cc2cnc(N)nc2N)cc2c1NCCC2`, for which the MIC with Salmonella typhimurium came out at 100 µg/mL (≈ 304 µM); in [1] it was 100 µg/mL (≈ 304 µM); in the data set with Streptococcus pyogenes it was 3 µg/mL (≈ 9.11 µM); against Vibrio cholerae, 10 µg/mL (≈ 30.4 µM); with Streptococcus agalactiae it was 10 µg/mL (≈ 30.4 µM); in the data set with Staphylococcus aureus, 10 µg/mL (≈ 30.4 µM). The MIC in data set [4] was 30 µg/mL (≈ 91.1 µM); with Proteus mirabilis, greater than 30 µg/mL; against Citrobacter freundii [9] it was 100 µg/mL (≈ 304 µM); in data set [6] it was 3 µg/mL (≈ 9.11 µM); against Klebsiella pneumoniae [10] it was 100 µg/mL (≈ 304 µM); in the data set with Pasteurella multocida it was 30 µg/mL (≈ 91.1 µM). In addition, the MIC in the data set with Proteus vulgaris was 100 µg/mL (≈ 304 µM); against Serratia marcescens, greater than 10 µg/mL; against Enterococcus faecalis, 3 µg/mL (≈ 9.11 µM); against Escherichia coli, 100 µg/mL (≈ 304 µM); against Klebsiella aerogenes it was 100 µg/mL (≈ 304 µM); in the data set on Shigella flexneri, 100 µg/mL (≈ 304 µM). Moreover, the IC50 at Dihydrofolate reductase [3] was 0.53 µM; on Dihydrofolate reductase [5], 170 µM.
